Consider 14 compounds from ChEMBL document CHEMBL5137079, “Structure-Based Design of Xanthine-Benzimidazole Derivatives as Novel and Potent Tryptophan Hydroxylase Inhibitors” (J Med Chem, 2022).

Values after ≈ are worked out from the molar mass of the structure shown.

A short description of data set [1]: Solubility of the compound in simulated intestinal fluid at upto 200 uM by HPLC-UV analysis. The data set is classed as physicochemical.
Data set [2] can be described thus: Solubility of the compound in PBS at pH 7.4 at upto 200 uM by HPLC-UV analysis. It is filed as physicochemical.
A short description of data set [3]: Solubility of the compound in simulated gastric fluid at upto 200 uM by HPLC-UV analysis. It is filed as physicochemical.
Data set [4] can be described thus: Metabolic stability in human hepatocytes assessed as half life. It is filed as ADME, cell-based, Hepatocyte.
The nature of data set [5]: Metabolic stability in rat hepatocytes assessed as half life. It is filed as ADME, cell-based, Hepatocyte.
The nature of data set [6]: Metabolic stability in rat hepatocytes assessed as intrinsic clearance. It is filed as ADME, cell-based, Hepatocyte. The settings on record: read-out: CLH.
The nature of data set [7]: Metabolic stability in human hepatocytes assessed as intrinsic clearance. It is filed as ADME, cell-based, Hepatocyte. The settings on record: read-out: CLH.
A short description of data set [8]: AUCinfinity in ICR mouse plasma at 50 mg/kg, po administered as single dose measured for 1440 mins by LC-MS/MS analysis. It is filed as ADME, organism-based. Also on record: time 1440 min, dose 50 mg/kg, route po.
The nature of data set [9]: AUCinfinity in ICR mouse brain at 50 mg/kg, po administered as single dose measured for 1440 mins by LC-MS/MS analysis. Details: time 1440 min, dose 50 mg/kg, route po. It is filed as ADME, organism-based.

Consider `CCn1c(=O)[nH]c(=O)c2c1nc(Cc1nc3ccccc3[nH]1)n2Cc1ccccc1`, for which the solubility (as a rule, the concentration that dissolves in the medium under given conditions) was 158 µM (≈ 63.2 µg/mL) in data set [1], 181 µM (≈ 72.6 µg/mL) in data set [2] and 162 µM (≈ 64.8 µg/mL) in [3]. Further, the values for the half-life in data set [4] and in data set [5] were 0.2 h and 1 h, respectively.
Consider `O=c1[nH]c(=O)n(C2CC2)c2nc(Cc3nc4ccccc4[nH]3)n(Cc3ccccc3)c12`, for which the solubility was 168 µM (≈ 69.2 µg/mL) in data set [1], 167 µM (≈ 69 µg/mL) in data set [2] and 180 µM (≈ 74.1 µg/mL) in data set [3]. Moreover, the half-life (as a rule, the time in which the quantity being followed falls by half) turned out to be 0.1 h in data set [4] and 0.583 h in data set [5].
Turning to `O=c1[nH]c(=O)n(C2CC2)c2nc(Cc3nc4ccc(O)cc4[nH]3)n(Cc3ccccc3)c12`, the solubility in data set [1] was 185 µM (≈ 79.1 µg/mL); in data set [2], 171 µM (≈ 73.4 µg/mL); in data set [3], 165 µM (≈ 70.6 µg/mL). Also, the CLint scaled in [6] and in data set [7] was under 115 mL/min/kg throughout. Besides, the half-life in data set [4] and in data set [5] was over 1 h in each case.
In the case of `CCCn1c(=O)[nH]c(=O)c2c1nc(Sc1nc3ccccc3[nH]1)n2Cc1ccccc1`, the solubility in data set [1] was 150 µM (≈ 65 µg/mL); in [2], 11.8 µM (≈ 5.1 µg/mL); in [3], 173 µM (≈ 74.8 µg/mL). Further, the results for the half-life in data set [4] and in data set [5] were 0.0667 h and 0.0833 h, respectively.
As to `O=c1[nH]c(=O)n(C2CC2)c2nc(Cc3nc4ccc(F)cc4[nH]3)n(Cc3ccccc3)c12`, the solubility is 154 µM (≈ 66.4 µg/mL) in data set [1], over 200 µM in [2] and 198 µM (≈ 85.4 µg/mL) in [3]. Besides, in data set [6], the CLint scaled is under 115 mL/min/kg. The half-life is 0.533 h in data set [4] and over 1 h in data set [5].
On to `COC(=O)c1ccc2nc(Cc3nc4c(c(=O)[nH]c(=O)n4C4CC4)n3Cc3ccccc3)[nH]c2c1`, for which the figures for the solubility in data set [1], in [2] and in data set [3] were 195 µM (≈ 91.8 µg/mL), 197 µM (≈ 92.8 µg/mL) and 198 µM (≈ 93.2 µg/mL), respectively. Besides, the CLint scaled in data set [6] and in [7] was under 115 mL/min/kg in each case. Moreover, the half-life in [4] and in data set [5] was over 1 h each time.
`N#Cc1ccc2nc(Cc3nc4c(c(=O)[nH]c(=O)n4C4CC4)n3Cc3ccccc3)[nH]c2c1`: the values for the solubility in [1], in data set [2] and in data set [3] were 196 µM (≈ 85.6 µg/mL), 154 µM (≈ 67.2 µg/mL) and 196 µM (≈ 85.8 µg/mL), respectively. For the same compound, the CLint scaled in data set [6] and in data set [7] was under 115 mL/min/kg throughout. Also, the half-life in data set [4] and in data set [5] was over 1 h throughout.
Take `CCn1c(=O)[nH]c(=O)c2c1nc(Cc1nc3cc4c(cc3[nH]1)OCO4)n2Cc1ccccc1`: the solubility is 166 µM (≈ 73.8 µg/mL) in [1], 186 µM (≈ 82.8 µg/mL) in data set [2] and 191 µM (≈ 84.8 µg/mL) in [3]. In addition, the half-life is over 1 h in data set [4] and 1 h in data set [5]. For the same compound, the CLint scaled in data set [7] was under 115 mL/min/kg. Also, the values for the area under the curve AUC(0-inf) in data set [8] and in data set [9] were 7450 ng·h/mL and 195 ng·h/mL, respectively.
As to `CCn1c(=O)[nH]c(=O)c2c1nc(Sc1nc3ccccc3[nH]1)n2Cc1ccccc1`, the solubility is 176 µM (≈ 73.5 µg/mL) in data set [1], 5.3 µM (≈ 2.22 µg/mL) in [2] and 195 µM (≈ 81.5 µg/mL) in data set [3]. Besides, the half-life was 0.0833 h in data set [4] and 0.167 h in [5].
Regarding `Cn1c(=O)[nH]c(=O)c2c1nc(Sc1nc3cc(NC(=O)CC[C@H](N)C(=O)O)ccc3[nH]1)n2Cc1ccccc1`, the solubility in data set [1] was 116 µM (≈ 63.4 µg/mL); in data set [2] it was 172 µM (≈ 94.2 µg/mL); in [3] it was over 200 µM. In addition, the CLint scaled in [6] and in [7] was under 115 mL/min/kg throughout. In addition, the half-life in data set [4] and in data set [5] was over 1 h throughout.
Take `CCCn1c(=O)[nH]c(=O)c2c1nc(Cc1nc3cc(O)ccc3[nH]1)n2Cc1ccccc1`: the solubility in [1] was 159 µM (≈ 68.5 µg/mL); in [2], over 200 µM; in data set [3], 189 µM (≈ 81.3 µg/mL). The CLint scaled in data set [6] and in data set [7] was under 115 mL/min/kg each time. The half-life in data set [4] and in data set [5] was over 1 h each time.
Take `O=c1[nH]c(=O)n(C2CC2)c2nc(Cc3nc4ccc(OCCO)cc4[nH]3)n(Cc3ccccc3)c12`: the solubility in data set [1] is 189 µM (≈ 89.2 µg/mL); in data set [2], 186 µM (≈ 87.7 µg/mL); in data set [3] it was 186 µM (≈ 87.9 µg/mL). Besides, the CLint scaled in data set [6] and in [7] was under 115 mL/min/kg each time. Besides, the half-life in data set [4] and in [5] was over 1 h each time.
`O=c1[nH]c(=O)n(C2CC2)c2nc(Cc3nc4cc5c(cc4[nH]3)OCO5)n(Cc3ccccc3)c12`: the solubility in data set [1] was 191 µM (≈ 87.3 µg/mL); in data set [2], 22.9 µM (≈ 10.5 µg/mL); in data set [3], 193 µM (≈ 87.9 µg/mL). In addition, the CLint scaled in data set [6] and in data set [7] was under 115 mL/min/kg throughout. Moreover, the half-life in [4] and in data set [5] was over 1 h each time.
On to `COc1ccc2nc(Cc3nc4c(c(=O)[nH]c(=O)n4C4CC4)n3Cc3ccccc3)[nH]c2c1`, for which the results for the solubility in data set [1], in data set [2] and in [3] were 195 µM (≈ 86.3 µg/mL), 197 µM (≈ 87.1 µg/mL) and 162 µM (≈ 71.6 µg/mL), respectively. Besides, the CLint scaled in data set [6] is under 115 mL/min/kg. For the same compound, the values for the half-life in data set [4] and in data set [5] were 0.1 h and over 1 h, respectively.
